Reference: paper PMC9171722, “An Enzyme with High Catalytic Proficiency Utilizes Distal Site Substrate Binding Energy to Stabilize the Closed State but at the Expense of Substrate Inhibition” (ACS Catalysis, 2022)

How the values were obtained:
[1] = biological target: T1, β-phosphoglucomutase (βPGM WT) (Lactococcus lactis, UniProt P71447); set-up: gene pgmB
[2] = biological target: T2, β-phosphoglucomutase (βPGM R49K) (Lactococcus lactis, UniProt P71447, R49K); assay: enzyme kinetics (kcat/Km), G6PDH coupled assay; […] NMR time course; type: biochemical
T2 construct: gene pgmB; full length

[3] = biological target: T3, β-phosphoglucomutase (βPGM R49A) (Lactococcus lactis, UniProt P71447, R49A); assay: as above; type: biochemical
T3 construct: gene pgmB; full length

[4] = biological target: T1, β-phosphoglucomutase (βPGM WT); assay: as above; type: biochemical; set-up: gene pgmB; full length

| SMILES | crystal structure (1.8 Å), open conformation [1] | enzyme kinetics (kcat/Km), G6PDH coupled assay; 31P NMR time course [2] [s^–1·μM^–1] | enzyme kinetics (kcat/Km), G6PDH coupled assay; 31P NMR time course [3] [s^–1·μM^–1] | enzyme kinetics (kcat/Km), G6PDH coupled assay; 31P NMR time course [4] [s^–1·μM^–1] |
| --- | --- | --- | --- | --- |
| O=P(O)(O)O [Pi, phosphate] | a phosphate anion coordinated in the distal site by the guanidinium group of R49 |  |  |  |
| O=P(O)(O)O[C@@H]1O[C@H](CO)[C@@H](O)[C@H](O)[C@H]1O [βG1P, β-glucose 1-phosphate] |  | 0.05 | 0.02 | 0.29 |
